Assay results: patent US20240124454A1, “TRICYCLIC COMPOUND AND USE THEREOF” (NANJING ZAIMING PHARMACEUTICAL CO., LTD., priority 2020, published 2024)
Read-outs that look alike come from different tables or passages of the source.

Legend:
hERG potassium channel = hERG potassium channel (Homo sapiens (Human), UniProt Q12809); test: hERG inhibitory activity, manual patch-clamp in HEK293 cells; assay type: cell-based; settings: HEK293 stably expressing hERG
Protocol: Test Example 8. Assay for hERG Inhibitory Activity of Compound of Present Application
The inhibition of hERG activity by the compounds of the present application was determined using the following method.
I. Experimental materials and instruments • 1. Dialyzed fetal bovine serum Shanghai Bohan Biotechnology Co., Ltd (BS-0005-500) • 2. DMEM culture medium Thermo Fisher Scientific (China) Co., Ltd. (10569) • 3. HEPES Thermo Fisher Scientific (China) Co., Ltd. (15630080) • 4. Trypsin Thermo Fisher Scientific (China) Co., Ltd. (2192509) • 5. Penicillin-streptomycin solution Thermo Fisher Scientific (China) Co., Ltd. (15140-122) • 6. MEM non-essential amino acid solution Thermo Fisher Scientific (China) Co., Ltd. (11140) • 7. Geneticin (G418) Thermo Fisher Scientific (China) Co., Ltd. (11811031) • 8. Blasticidin Thermo Fisher Scientific (China) Co., Ltd. (R21001) • 9. PolylysineThermo Fisher Scientific (China) Co., Ltd. (P4832) • 10. Dofetilide Beijing Express Technology Co., Ltd. (D525700) • 11. Doxycycline Sigma-Aldrich (Shanghai) Trading Co., Ltd. (D9891) • 12. Carbon dioxide incubator Thermo Fisher Scientific (China) Co., Ltd. (371) • 13. Puller Sutter Company, U.S. (P-97) • 14. Micromanipulator Siskiyou Company, U.S. (MC1000e) • 15. Micromanipulator Sutter Company, U.S. (ROE-200; MP285) • 16. Amplifier HEKA Company, Germany (EPC10) • 17. Microscope Olympus (China) Co., Ltd. (IX51/71/73) • 18. Perfusion system ALA Company, U.S. (VM8 gravity administration system)
II. Culture of cell lines and cells
HEK293 cells (Cat. No: K1236) stably expressing hERG ion channel were purchased from Invitrogen. The cells were cultured in a culture medium containing 85% DMEM, 10% dialyzed fetal bovine serum, 0.1 mM non-essential amino acid solution, 100 U/mL penicillin-streptomycin solution, 25 mM HEPES, 5 μg/mL blasticidin, and 400 μg/mL geneticin. When the cell density increased to 40-80% of the bottom area of the culture dish, the cells were digested with trypsin and subcultured thrice every week. Before the experiment, the cells were cultured at a density of 5×10^5 in 6-cm culture dishes, induced for 48 h with 1 μg/mL doxycycline, and then digested and inoculated on a slide for the subsequent manual patch-clamp experiment.
III. Preparation of solutions
1) Extracellular fluid: 132 mM sodium chloride, 4 mM potassium chloride, 3 mM calcium chloride, 0.5 mM magnesium chloride, 11.1 mM glucose, and 10 mM HEPES (adjusted to pH 7.35 with sodium hydroxide).
2) Intracellular fluid: 140 mM potassium chloride, 2 mM magnesium chloride, 10 mM EGTA, 5 mM ATP-magnesium salt, and 10 mM HEPES (adjusted to pH 7.35 with potassium hydroxide).
Note: the osmotic pressure of the solutions was controlled at 280-300 mOsmol/kg. The solutions were filtered and stored at 4° C. before use. The ATP-magnesium salt was prepared into a 100 mM stock solution, subpackaged, and stored in a −20° C. refrigerator. On the day of the experiment, a certain amount of the stock solution was added into the intracellular fluid right before use.
1) The slides carrying HEK293 cells in the culture dish were placed in the perfusion chamber of the micromanipulation stage.
2) Appropriate cells were placed in the center of the field of view under an Olympus IX51, IX71, or IX73 inverted microscope. The tip of the glass electrode was found using a 10× objective lens and placed in the center of the field of view. The electrode was then moved down using a micromanipulator while the electrode was slowly brought into proximity to the cell using the coarse adjustment.
3) When the electrode was in close proximity to the cell, the lens was switched to a 40× objective lens for observation. The micromanipulator was used for fine adjustment to make the electrode approach the surface of the cell gradually.
4) Negative pressure was applied to form a seal with a resistance higher than 1 GΩ between the electrode tip and the cell membrane. […]

[1] = Pharmacokinetics in Balb/c Nude mice; assay type: in vivo; settings: female, mouse, plasma; for bioavailability: Balb/c Nude, vs IV 1 mg/kg; for AUC(0-t): Balb/c Nude mice, read-out: AUC0-24
Protocol: Test Example 9. Determination of Pharmacokinetics of Compounds of Present Application
The pharmacokinetics of the compounds of the present application were determined in mice using the following method.
I. Materials: • Balb/c Nude mice, purchased from Beijing Vital River Laboratory Animal Technology Co., Ltd. • NMP (N-methyl-2-pyrrolidone), Solutol® HS 15 (polyoxyethylenated 12-hydroxystearic acid), and Vitamin E TPGS (D-a-tocopherol-polyethylene glycol 1000 succinate), purchased from Sigma. • Acetonitrile, purchased from Merck (USA).
II. Vehicle preparation: • 10% aqueous VE TPGS solution: 1 g of VE TPGS was dissolved in purified water, and the volume was brought to 10 mL. • 5% NMP+10% Solutol® HS 15+85% water: 0.5 mL of NMP was measured using a pipette, 1 g of Solutol® HS 15 was weighed, and the volume was brought to 10 mL with water.
6 female Balb/c Nude mice (20-30 g, 4-6 weeks) were randomized into 2 groups of 3. Group 1 was administered with 1 mpk (1 mg/kg) test compound by injection at the tail vein (IV), and the vehicle was 5% NMP+10% Solutol® HS 15+85% water. Group 2 was administered with 1 or 3 mpk test compound by oral administration (PO) (see the table below for specific doses), and the vehicle was 5% NMP+10% Solutol® HS 15+85% water or 10% Vitamin E TPGS aqueous solution. Before the experiment, all animals were given free access to food and water. Blood samples of the mice in each group were collected intravenously pre-dose and at 0.083 h (only the intravenous injection group), 0.25 h, 0.5 h, 1 h, 2 h, 4 h, 6 h, 8 h, and 24 h post-dose. The whole blood samples were collected in K2EDTA vacutainers, and the plasma samples were prepared by 5 min of centrifugation (4000 rpm, 4° C.).
10 μL of mouse plasma was added to 150 μL acetonitrile solvent (containing an internal standard) to precipitate the protein. The mixture was vortexed for 0.5 min and centrifuged (14000 rpm) for 5 min. The supernatant was diluted 2-fold with water containing 0.1% (v/v) FA and quantitatively detected on an LC-MS/MS system (AB Sciex Triple Quad 6500+). When the concentration of the sample was measured, quality control samples were also analyzed and a Balb/c Nude mouse plasma standard curve was plotted. For 10× diluted samples, 2 μL of the sample was added to 18 μL of blank plasma. The mixture was vortexed for 0.5 min. Then 300 μL of acetonitrile solvent (containing an internal standard) was added to precipitate the protein. The other steps were the same as those in undiluted samples.

[2] = PO 1 mg/kg, vehicle 5% NMP + 10% Solutol HS 15 + 85% water
[3] = PO 3 mg/kg, vehicle 10% VE TPGS aqueous solution

Chain of hERG potassium channel (Q12809 whole entry): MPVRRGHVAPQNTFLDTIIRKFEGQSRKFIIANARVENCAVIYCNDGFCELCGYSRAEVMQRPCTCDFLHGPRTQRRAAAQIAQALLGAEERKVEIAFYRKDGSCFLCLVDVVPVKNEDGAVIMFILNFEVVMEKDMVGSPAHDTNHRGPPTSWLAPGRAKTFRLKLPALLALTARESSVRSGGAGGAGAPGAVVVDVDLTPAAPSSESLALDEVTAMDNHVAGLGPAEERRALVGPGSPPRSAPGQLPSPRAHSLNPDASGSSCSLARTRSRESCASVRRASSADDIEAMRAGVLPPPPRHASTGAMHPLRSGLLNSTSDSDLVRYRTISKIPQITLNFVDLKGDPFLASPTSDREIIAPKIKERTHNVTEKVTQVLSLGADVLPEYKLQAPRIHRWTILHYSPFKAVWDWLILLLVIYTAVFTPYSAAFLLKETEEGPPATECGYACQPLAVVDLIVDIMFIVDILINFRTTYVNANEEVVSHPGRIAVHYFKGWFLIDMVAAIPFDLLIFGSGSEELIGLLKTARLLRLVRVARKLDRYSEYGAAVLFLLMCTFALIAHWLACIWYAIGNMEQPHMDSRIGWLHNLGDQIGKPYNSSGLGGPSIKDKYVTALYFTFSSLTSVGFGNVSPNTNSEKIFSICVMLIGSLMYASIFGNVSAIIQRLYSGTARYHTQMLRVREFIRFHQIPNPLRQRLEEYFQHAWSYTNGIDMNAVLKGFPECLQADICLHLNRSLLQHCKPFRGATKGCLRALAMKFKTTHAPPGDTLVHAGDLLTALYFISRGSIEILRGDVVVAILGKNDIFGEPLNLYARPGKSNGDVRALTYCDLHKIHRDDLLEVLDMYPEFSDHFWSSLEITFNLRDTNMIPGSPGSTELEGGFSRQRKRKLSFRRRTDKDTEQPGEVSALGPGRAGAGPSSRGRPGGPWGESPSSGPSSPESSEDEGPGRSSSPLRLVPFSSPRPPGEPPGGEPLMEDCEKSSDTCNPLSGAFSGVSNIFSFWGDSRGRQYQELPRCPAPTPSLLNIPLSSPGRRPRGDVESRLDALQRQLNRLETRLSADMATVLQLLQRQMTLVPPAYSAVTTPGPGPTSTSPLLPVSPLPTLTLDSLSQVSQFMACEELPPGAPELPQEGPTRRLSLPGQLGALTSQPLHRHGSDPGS

| SMILES | IC50 (hERG potassium channel) | bioavailability [1, 2] | AUC(0-t) [1, 2] | bioavailability [1, 3] | AUC(0-t) [1, 3] |
| --- | --- | --- | --- | --- | --- |
| Cc1ncccc1-n1c(=O)c2ncn(C)c2c2ccc(C(F)(F)F)nc21 (atropisomer, axis not shown) [Compound 20, 1-methyl-5-(2-methylpyridin-3-yl)-7-(trifluoromethyl)-1,5-dihydro-4H-imidazo[4,5-c][1,8]naphthyridin-4-one] | > 30 nM | – | – | – | – |
| Cn1cnc2c(=O)n(-c3cccc(F)c3Cl)c3nc(C(F)(F)F)ccc3c21 (atropisomer, axis not shown) [Compound 25, 5-(2-chloro-3-fluorophenyl)-1-methyl-7-(trifluoromethyl)-1,5-dihydro-4H-imidazo[4,5-c][1,8]naphthyridin-4-one] | > 30 nM | ~100% | 5840 ng·h/mL | – | – |
| Cn1cnc2c(=O)n(-c3cccc(F)c3Cl)c3nc(C(F)(F)F)ccc3c21 (single isomer, unassigned) [Compound 25-P2, 5-(2-chloro-3-fluorophenyl)-1-methyl-7-(trifluoromethyl)-1,5-dihydro-4H-imidazo[4,5-c][1,8]naphthyridin-4-one] | > 30 nM | – | – | ~100% | 30300 ng·h/mL |
| Cn1cnc2c(=O)n(-c3cccnc3C(F)(F)F)c3nc(C(F)(F)F)ccc3c21 (single isomer, unassigned) [Compound 41-P2, 1-methyl-7-(trifluoromethyl)-5-(2-(trifluoromethyl)pyridin-3-yl)-1,5-dihydro-4H-imidazo[4,5-c][1,8]naphthyridin-4-one] | > 30 nM | ~100% | 10500 ng·h/mL | – | – |
| Cn1cnc2c(=O)n(-c3cccnc3C3CC3)c3nc(C(F)(F)F)ccc3c21 (single isomer, unassigned) [Compound 42-P2, 5-(2-cyclopropylpyridin-3-yl)-1-methyl-7-(trifluoromethyl)-1,5-dihydro-4H-imidazo[4,5-c][1,8]naphthyridin-4-one] | > 30 nM | ~100% | 10500 ng·h/mL | – | – |
| Cn1cnc2c(=O)n(-c3cccnc3C3CC3)c3cc(C(F)(F)F)ccc3c21 (single isomer, unassigned) [Compound 48-P2, 5-(2-cyclopropylpyridin-3-yl)-1-methyl-7-(trifluoromethyl)-1,5-dihydro-4H-imidazo[4,5-c]quinolin-4-one] | > 30 nM | ~100% | 24400 ng·h/mL | – | – |
| Cn1cnc2c(=O)n(-c3cccnc3C3CC3)c3cc(Cl)ccc3c21 (single isomer, unassigned) [Compound 49-P2, 7-chloro-5-(2-cyclopropylpyridin-3-yl)-1-methyl-1,5-dihydro-4H-imidazo[4,5-c]quinolin-4-one] | > 30 nM | 89.6% | 11300 ng·h/mL | – | – |
| O=c1c2ncoc2c2ccc(C(F)(F)F)nc2n1-c1cccnc1C1CC1 (single isomer, unassigned) [Compound 81-P2, 5-(2-cyclopropylpyridin-3-yl)-7-(trifluoromethyl)oxazolo[4,5-c][1,8]naphthyridin-4(5H)-one] | > 30 nM | – | – | – | – |
| Cn1cnc2c(=O)n(-c3cccc(F)c3Cl)c3cc(Cl)ccc3c21 [Compound 39, 7-chloro-5-(2-chloro-3-fluorophenyl)-1-methyl-1,5-dihydro-4H-imidazo[4,5-c]quinolin-4-one] | > 30 nM | – | – | – | – |
| Cc1ncccc1-n1c(=O)c2ncoc2c2ccc(C(F)(F)F)nc21 [Compound 40, 5-(2-methylpyridin-3-yl)-7-(trifluoromethyl)oxazolo[4,5-c][1,8]naphthyridin-4(5H)-one] | > 30 nM | – | – | – | – |
| Cc1ncccc1-n1c(=O)c2ncn(C)c2c2ccc(C(F)(F)F)cc21 [Compound 45, 1-methyl-5-(2-methylpyridin-3-yl)-7-(trifluoromethyl)-1,5-dihydro-4H-imidazo[4,5-c]quinolin-4-one] | > 30 nM | – | – | – | – |
